Assay results published in US6417399B1, “Amelioration of neurological disorders by the administration of (2R),(3S), and/or (2S),3(S) stereoisomers of valnoctamide” (Yissum Research Development Company of the Hebrew …, priority 1997, dated 2002).
Values joined by “and” are separate entries in the source; they are usually repeats but may differ in a detail not shown here. Equal entries are not always repeated.

Experiments:
Format in all cases: in vivo, human
[1] = Pharmacokinetics of VCD stereoisomers in plasma after single oral dose of racemic valnoctamide to epileptic patients; settings: for CL/F / Cmax / MRT / tmax / t½: single oral 400 mg racemic VCD; for half lives: epileptic patients
Description: (§1) Patients Six epileptic patients (four men and two women aged 23-35 years, with a body weight of 56-85 kg) were studied. All had been receiving a constant carbamazepine dose (800-1200 mg/day) for at least three months. One patient was also receiving phenytoin (250 mg/day) and a second patient phenobarbital (150 mg/day). Each patient received add-on VCD for eight consecutive days at a dosage of 400 mg on day 1 (single dose day), followed by 200 mg three times daily (tid) for seven days. On the last day, only the morning and the midday doses were administered. Blood samples for plasma VCD levels were collected at 0, 0.25, 0.5, 1, 1.5, 2, 3, 4, 5, 6, 8, 10, 12 and 24 hours after the first and the last morning dose. Additional samples were taken at times 0, 0.5, 1, and 2 hours after the morning dose on the last treatment day.
(§2) Plasma Handling and Analytical Assays Plasma samples were separated immediately by centrifugation at 2,000 g for 10 minutes and stored at −20° C. until assaying (VCD is stable at −20° C.). The VCD plasma samples were analyzed by a gas chromatograph (HP 5890 series II)-mass spectrometer (HP 5989A)-GC-MS data system equipped with chiral capillary column. The mass spectrometer was operated in E1 mode at 70eV, the source temperature of the MS was maintained at 200° C. and the quadruple at 100° C. Mass units and their relative abundance were calibrated with perfluorotributylamine (PFTBA). Spectra were collected in the range of […], and the chiral analysis started 18 minutes after injection. Gas chromatograph (GC) oven temperature programming conditions were as follows: 50° C. for 1 minute, then increasing at a rate of 8° C./minute until 100° C., holding for a minute then 4° C./minute until reaching a final temperature of 250° C. The injector temperature is 240° C. and the GC-MS transfer line temperature is 250° C. Inlet pressure is 5 psi with a linear flow rate 20 cm/second. Helium was used as the carrier gas. Chromatographic resolution of the VCD stereoisomers was accomplished by a direct separation on a chiral stationary phase (CSP) column. The CSP consisted of a Chirasil-γ-Dex (octakis (3-O-butanoyl-2,6-di-o-pentyl)-γ-cyclodextrin chemically linked via a 6-mono-octamethylene spacer to a dimethylpolysiloxane. The 0.25 μm Chirasil-γ-Dex was coated on a 25 m×250 μm (id) fused silica capillary column. This CSP of a cyclodextin derivative allows complete baseline resolution of the four stereoisomers (α=1.04, Rs=2.0-2.4) in 24 minutes as depicted in FIG. 2. Intra and inter-day variability in the retention times of the four VCD stereoisomers was less than 10%. A calibration curve was established by spiking drug-free plasma samples with known amounts of racemic VCD at a concentration range of 0.2 mg/L to 8 mg/L (or 0.05 mg/L to 2 mg/L of each of the four VCD stereoisomers).
(§3) Pharmacokinetic and Statistical Analysis Pharmacokinetic parameters were calculated by noncompartmental analysis according to statistical moment theory. Peak plasma concentrations (Cmax) and peak times (tmax) were derived directly from the measured values. The linear terminal slopes (λ) of the log-concentration of each VCD stereoisomer versus time curves were calculated by the peeling procedure. Half life (t½) values were calculated as 0.693/λ. Areas under the plasma concentration versus time curve (AUC), after single dosing, were calculated by the trapezoidal rule with extrapolation to infinity by dividing the last measured concentration by the terminal slope. During repeated administration AUC was calculated over the last two dosing intervals by using the trapezoidal rule. Mean residence time (MRT) was calculated after single dosing as AUMC/AUC, in which AUMC is the area under the concentration×time product versus time curve from zero to infinity. Following single dosing, oral clearance (CL/F, in which F is the oral availability) and apparent volume of distribution at steady state (Vss/F) were calculated as Dose/AUC and as MRT×CL/F, respectively. […]

[2] = Pharmacokinetics of VCD stereoisomers in plasma after single oral dose of racemic valnoctamide to healthy subjects
Description: Healthy Subjects Seven healthy male volunteers, aged 20-31 years, weighing 61 to 85 kg, received 2×200 mg valnoctamide tablets (Nirvanil@) at 08:00 hours after an overnight fast. Venous blood samples were taken through an indwelling catheter 0, 0.5, 1, 2, 3, 4, 5, 6, 8, 10, 12 and 24 hours after dosing. Food was witheld for 4 hours after dosing.
as §2
Pharmacokinetic and Statistical Analysis Pharmacokinetic parameters were calculated by noncompartmental analysis according to statistical moment theory. Peak plasma concentrations (Cmax) and peak times (tmax) were derived directly from the measured values. The linear terminal slopes (λ) of the log-concentration of each VCD stereoisomer versus time curves were calculated by the peeling procedure. Half life (t½) values were calculated as 0.693/λ. Areas under the plasma concentration versus time curve (AUC), after single dosing, were calculated by the trapezoidal rule with extrapolation to infinity by dividing the last measured concentration by the terminal slope. During repeated administration AUC was calculated over the last two dosing intervals by using the trapezoidal rule. Mean residence time (MRT) was calculated after single dosing as AUMC/AUC, in which AUMC is the area under the concentration×time product versus time curve from zero to infinity. Following single dosing, oral clearance (CL/F, in which F is the oral availability) and apparent volume of distribution at steady state (Vss/F) were calculated as Dose/AUC and as MRT×CL/F, respectively. Following repeated dosing, CL/F was calculated from the quotient of the dose (200 mg) and the AUC obtained during one dosing interval (defined as one-half of the AUC calculated over two consecutive dosing intervals). Comparison of the pharmacokinetic parameters of all four VCD stereoisomers was made by ANOVA.

[3] = Pharmacokinetics of VCD stereoisomers in plasma after repeated oral dosing of racemic valnoctamide to epileptic patients; settings: repeated oral racemic VCD 200 mg tid, last day
Description: as §1, §2, §3

[4] = Mean ± SD of six epileptic patients
[5] = individual epileptic patients on carbamazepine
[6] = Mean ± SD of seven healthy subjects, single oral 400 mg racemic VCD
[7] = individual healthy subjects, single oral 400 mg racemic VCD
[8] = individual healthy subjects, single oral 400 mg racemic VCD (Nirvanil), stereoisomer in plasma
[9] = individual epileptic patients, last dosing interval

| Compound | CL/F [1, 4] | Cmax [1, 4] | MRT [1, 4] | tmax [1, 4] | t½ [1, 4] | half lives [1] | CL/F [1, 5] | Cmax [1, 5] | MRT [1, 5] | tmax [1, 5] | t½ [1, 5] | CL/F [2, 6] | Cmax [2, 6] | MRT [2, 6] | tmax [2, 6] | t½ [2, 6] | CL/F [2, 7] | Cmax [2, 7] | MRT [2, 7] | tmax [2, 7] | also measured |
| --- | --- | --- | --- | --- | --- | --- | --- | --- | --- | --- | --- | --- | --- | --- | --- | --- | --- | --- | --- | --- | --- |
| CCC(C)C(CC)C(N)=O (single isomer, unassigned; stereoisomer b) [Stereoisomer B] | 80 ± 20 L/h | 0.41 ± 0.12 mg/L | 4.0 ± 1.6 h | 0.75 ± 0.41 h | 3.0 ± 1.3 h | about 3 h | 108 L/h and 60 L/h and 94 L/h and 84 L/h and 56 L/h and 79 L/h | 0.31 mg/L and 0.56 mg/L and 0.3 mg/L and 0.48 mg/L and 0.51 mg/L and 0.32 mg/L | 3.6 h and 5.2 h and 3.3 h and 1.3 h and 5.1 h and 5.6 h | 1 h and 0.5 h (4×) and 1.5 h | 1.4 h and 4.0 h (2×) and 1.3 h and 3.0 h and 4.1 h | 8.7 ± 0.9 L/h | 1.3 ± 0.2 mg/L | 8 ± 1 h | 0.7 ± 0.3 h | 5.8 ± 1.1 h | 7.9 L/h (2×) and 9.2 L/h and 8.4 L/h and 10.2 L/h and 8.1 L/h and 9.3 L/h | 1.5 mg/L (2×) and 1.1 mg/L (2×) and 1.4 mg/L (3×) | 7.0 h and 10 h (2×) and 7 h and 9 h and 8 h (2×) | 1 h (3×) and 0.5 h (4×) | t½ ([2]; Mean ± SD of seven healthy subjects, single oral 400 mg racemic VCD, listed as stereoisomer B): ~5.8 h; t½ [2, 8]: 4.7 h and 7.3 h and 4.6 h and 6.0 h and 5.8 h and 5.2 h and 7.1 h; CL/F [3, 4]: 58 ± 14 L/h; Cmax [3, 4]: 0.4 ± 0.1 mg/L; tmax [3, 4]: 1.4 ± 0.3 h; t½ [3, 4]: 2.2 ± 0.5 h; CL/F ([3]; individual epileptic patients): 79 L/h and 50 L/h (2×) and 52 L/h and 71 L/h and 46 L/h; Cmax ([3]; individual epileptic patients): 0.4 mg/L (2×) and 0.5 mg/L (2×) and 0.3 mg/L (2×); tmax ([3]; individual epileptic patients): 2.0 h and 1.5 h (3×) and 1.0 h and 1.25 h; t½ [3, 9]: 2.0 h and 1.9 h and 2.9 h and 2.1 h and 4.3 h (2×) |
| CCC(C)C(CC)C(N)=O (single isomer, unassigned; stereoisomer a) [Stereoisomer A] | 32 ± 7 L/h | 0.78 ± 0.10 mg/L | 5.4 ± 1.5 h | 0.8 ± 0.5 h | 4.1 ± 2.1 h | about 3 h | 40 L/h and 27 L/h and 35 L/h (2×) and 32 L/h and 20 L/h | 0.71 mg/L (2×) and 0.94 mg/L and 0.82 mg/L and 0.88 mg/L and 0.67 mg/L | 4.4 h and 5.1 h (2×) and 4.3 h and 5.3 h and 8.3 h | 1.5 h (2×) and 0.5 h (4×) | 2.8 h and 3.6 h (2×) and 2.5 h and 8.3 h and 3.8 h | 4.2 ± 0.6 L/h | 1.7 ± 0.2 mg/L | 15 ± 3 h | 0.7 ± 0.3 h | 10.2 ± 2.1 h | 3.6 L/h and 4.5 L/h and 4.1 L/h and 3.7 L/h and 4.6 L/h and 4.2 L/h and 3.5 L/h | 2.0 mg/L and 1.5 mg/L (2×) and 1.8 mg/L (3×) and 1.7 mg/L | 13 h (2×) and 20 h and 12 h (2×) and 15 h and 18 h | 1 h (3×) and 0.5 h (4×) | t½ ([2]; Mean ± SD of seven healthy subjects, single oral 400 mg racemic VCD, listed as A): approximately 10 h; t½ [2, 8]: 8.8 h and 13.6 h and 8.1 h and 10.7 h and 9.5 h and 8.5 h and 12.5 h; CL/F [3, 4]: 21 ± 4 L/h; Cmax [3, 4]: 0.9 ± 0.2 mg/L; tmax [3, 4]: 1.5 ± 0.3 h; t½ [3, 4]: 2.8 ± 0.7 h; CL/F ([3]; individual epileptic patients): 23 L/h and 19 L/h (3×) and 20 L/h and 29 L/h; Cmax ([3]; individual epileptic patients): 0.9 mg/L and 1.1 mg/L and 0.72 mg/L and 0.86 mg/L and 0.8 mg/L and 1.2 mg/L; tmax ([3]; individual epileptic patients): 2.0 h and 1.5 h (3×) and 1.0 h and 1.75 h; t½ [3, 9]: 2.2 h and 2.7 h and 3.8 h (2×) and 2.4 h and 4.8 h |
| CCC(C)C(CC)C(N)=O (single isomer, unassigned; stereoisomer d) [Stereoisomer D] | 46 ± 11 L/h | 0.61 ± 0.11 mg/L | 4.7 ± 1.0 h | 0.83 ± 0.51 h | 3.3 ± 1.1 h | about 3 h | 60 L/h and 35 L/h and 45 L/h and 42 L/h (2×) and 30 L/h | 0.51 mg/L (3×) and 0.72 mg/L (2×) and 0.69 mg/L | 3.3 h and 5.2 h and 4.5 h and 5.6 h and 5.4 h and 5.3 h | 1.5 h (2×) and 0.5 h (4×) | 1.2 h and 3.8 h (3×) and 2.7 h and 3.9 h | 4.6 ± 0.7 L/h | 1.5 ± 0.2 mg/L | 15 ± 3 h | 0.7 ± 0.3 h | 10 ± 2 h | 4.3 L/h and 5.6 L/h and 4.8 L/h and 3.8 L/h and 5.4 L/h and 4.7 L/h and 4.1 L/h | 1.5 mg/L (3×) and 1.3 mg/L and 1.6 mg/L and 1.4 mg/L and 1.8 mg/L | 13 h (2×) and 18 h (2×) and 12 h (2×) and 19 h | 1 h (3×) and 0.5 h (4×) | t½ ([2]; Mean ± SD of seven healthy subjects, single oral 400 mg racemic VCD, listed as D): approximately 10 h; t½ [2, 8]: 8.7 h and 12.9 h and 8.0 h and 13.0 h and 9.5 h and 7.9 h and 13 h; CL/F [3, 4]: 29 ± 6 L/h; Cmax [3, 4]: 0.6 ± 0.1 mg/L; tmax [3, 4]: 1.4 ± 0.3 h; t½ [3, 4]: 3.2 ± 1.4 h; CL/F ([3]; individual epileptic patients): 36 L/h and 25 L/h (3×) and 38 L/h and 24 L/h; Cmax ([3]; individual epileptic patients): 0.7 mg/L and 0.8 mg/L and 0.6 mg/L (3×) and 0.5 mg/L; tmax ([3]; individual epileptic patients): 2.0 h and 1.5 h (3×) and 1.0 h and 1.25 h; t½ [3, 9]: 2.1 h and 2.8 h and 5.2 h and 2.5 h and 5.3 h and 4.6 h |
